Data published in patent US8119589B2, “Modulation of CD4+ T cell responses by a tick saliva protein, Salp15 and polypeptides derived therefrom” (University of North Carolina at Charlotte, priority 2004, dated 2012).
Where a SMILES comes first, the peptide text is derived from it.

Assays:
CD4+ T cells [1] = test: IL-2 production (capture ELISA) by CD4+ T cells activated with plate bound anti-CD3 and soluble anti-CD28; type: cell-based, mouse; details: for Inhibition of CD4+ T cell IL-2 production: pretreatment with peptide, 24 hr of activation
Procedure: FIG. 6D is a graph showing purified CD4^+ T cells were activated in vitro with plate bound anti-CD3 and soluble anti-CD28 in the absence or presence of Salp15 (50 μg/mL), P11, or P8. The supernatants were analyzed at 24 hr of activation for IL-2 levels by capture ELISA.
(§1) Naïve CD4+ T cells from C3H/HeN, Balb/c, and B10.BR mice were purified as previously described (Anguita et al., 2002). CD4+ T cells were preincubated in Click's modified Bruff's Medium (Sigma Chemical Co., St. Louis, Mo., U.S.A.) for 10 minutes at 37° C. with and without Salp15 (50 μg/mL) and stimulated for 20 min or the indicated times at 37° C. with 10 μg/mL of anti-CD3ε, 1 μg/mL of anti-CD28, and 10 μg/mL of anti-armenian and syrian hamster IgG (BD Biosciences Pharmingen, San Jose, Calif., U.S.A.). Jurkat (E6-1) cells were stimulated using 5 μg/mL of OKT3 mAb (eBioscience, San Diego, Calif., U.S.A.) and 1 μg/mL of anti-human CD28 cross linked with 5 μg/mL anti-mouse IgG for the indicated times.

sCD4 = molecular target: T1, sCD4 (Homo sapiens, UniProt P01730); test: Microtiter binding of sCD4-HRP to plate-bound Salp15 and synthetic peptides
T1 construct: the extracellular four domains of CD4 (sCD4); purchased Research Diagnostics Inc., Flanders, N.J., U.S.A
Procedure: Purified sCD4 was coated overnight at 4° C. at the indicated concentrations in 0.1M sodium carbonate buffer (pH 9.5) in 96 well plates. Equimolar amounts of lysozyme were used as a non-specific control. The wells were washed, blocked with 10% FCS/PBS for 1 hr at R.T., and incubated with Salp15 (0.4 μM) for 2 hr at 37° C. Salp15 binding was detected by incubation with horseradish peroxidase (HRP)-conjugated anti-His antibody for 1 hr followed by microwell peroxidase substrate (KPL). The reaction was stopped by adding TMB stop solution (KPL). Chemically synthesized overlapping peptides of Salp15 were purchased from GenScript Corporation (Piscataway, N.J., U.S.A). To study the binding of Salp15 and peptides to sCD4, Salp15 (5 μg) and different peptides (0.5 μg) were coated. The wells were washed and blocked prior to incubation with sCD4-HRP (Research Diagnostics Inc., Flanders, N.J., U.S.A.). For competition assays, indicated concentrations of Salp15 or P11 were added to sCD4-HRP and incubated with plate bound P11 (0.1 μg). To estimate the effect of dithiothreitol (DTT) treatment of Salp15 on binding to sCD4, 0.5 μM Salp15 was treated with 10 mM DTT overnight and immobilized onto microtiter plate followed by blocking and incubation with sCD4-HRP.
Dissociation constants were determined by non-linear curve fit. The results are expressed as the mean±S.E. of 3 to 5 individual experiments.

CD4+ T cells [2] = test: Lipid raft redistribution (CTB594 staining, receptor capping) in activated CD4+ T cells; type: cell-based, mouse; details: pretreatment with peptide 0.2 μg/mL; anti-CD3/CD28 20 min
Procedure: as §1
For the visualization of lipid rafts, phospho-tyrosine, and cytoskeleton reorganization, CD4^+, CD8^+ or Jurkat cells were cytospun for 10 minutes at 1000 RPM onto positively charged microslides (Fisher Scientific, Hampton, N.H., U.S.A.). The cells were fixed with 3.7% paraformaldehyde (Sigma Chemical Co.) for 15 minutes and stained with CTB594 (Molecular Probes, Eugene, Oreg., U.S.A.), AlexaFluor488 labeled phalloidin (Molecular Probes) or (1:50) biotin-conjugated anti-p-Tyr (PY99) followed by Streptavidin-AlexaFluor594 (1:100, Molecular Probes). For p-LAT and p-PLCγ1 staining, fixed cells were treated with PBS containing 0.1% Triton-X 100 and 100 mM glycine for 15 min at room temperature and stained using rabbit p-LAT (Tyr^191) or rabbit anti-p-PLCγ1 (Tyr^783) probed with anti-rabbit IgG488 (Molecular Probes).
For receptor capping studies, mouse primary B and CD11^+ cells were purified by positive selection using biotin anti-mouse CD45R/B220 clone RA3-6B2 and biotin anti-mouse CD11b clone M1/70 (BD Biosciences Pharmingen) respectively, followed by incubation with magnetic microbeads. The cells were analyzed for receptor capping using 25 μg/mL anti-mouse IgM and 25 μg/mL anti-mouse CD16/CD32 respectively, cross-linked with 25 μg/mL of anti-rat IgG594 for 10 min in the presence or absence of 50 μg/mL of Salp15. […]

## CC[C@H](C)[C@H](NC(=O)[C@H](Cc1c[nH]cn1)NC(=O)CNC(=O)[C@@H](NC(=O)[C@H](CS)NC(=O)[C@H](CCCCN)NC(=O)[C@H](CC(N)=O)NC(=O)[C@H](CCCCN)NC(=O)[C@H](CCC(=O)O)NC(=O)[C@H](C)NC(=O)[C@H](CS)NC(=O)[C@@H](NC(=O)[C@H](CCC(N)=O)NC(=O)CNC(=O)[C@H](CC(N)=O)NC(=O)[C@@H]1CCCN1C(=O)CN)[C@@H](C)O)C(C)C)C(=O)N1CCC[C@H]1C(=O)NCC(=O)N[C@@H](CS)C(=O)O [Peptide P11] (H-GPNGQTCAEKNKCVGHIPGC-OH; N-terminus and C-terminus assumed)
CD4+ T cells [1]
  Activity for modulating naïve CD4+ T cell activation among the tested polypeptide fragments: highest activity
  Inhibition of CD4+ T cell IL-2 production: dose dependent inhibition
sCD4; peptides 0.5 μg coated, sCD4-HRP
  Binding of overlapping synthetic peptides to sCD4: showed binding
CD4+ T cells [2]
  Lipid rafts clustering in response to T cell activation: reduction

## EKNKCVGHIPGC (listed as Ixodes scapularis) [Peptide P11-2]
CD4+ T cells [1]
  Activity for modulating naïve CD4+ T cell activation among the tested polypeptide fragments: highest activity
sCD4
  Saturable binding to sCD4 with increasing concentrations: saturable binding

## NCTFLCKHGNDVNVTLNLPE (listed as Ixodes scapularis) [Peptide P8]
CD4+ T cells [1]
  Inhibition of CD4+ T cell IL-2 production: did not exert any inhibition
sCD4
  Saturable binding to sCD4 with increasing concentrations: no binding
CD4+ T cells [2]
  Lipid rafts clustering in response to T cell activation: did not show any effect
